Data as given in US9370474B2, “High-clarity aqueous concentrates of 4-hexylresorcinol” (JOHNSON & JOHNSON CONSUMER INC., priority 2009, dated 2016).

Experiments:
[1] = Clarity of mixtures of resorcinol/phenol analogues with water; assay type: physicochemical; settings: separately mixed with water at 50% and 75% concentrations
Description: 4-Octylresorcinol and 3-methoxyphenol (from Sigma-Aldrich of St. Louis, Mo.) were separately mixed with water at 50% and 75% concentrations.

[2] = cited from earlier work

SMILES	Clarity / appearance of mixtures with water [1]	Water solubility (prior art characterization) [2]
COc1cccc(O)c1 [3-methoxyphenol]	None of the mixtures were clear	
CCCCCCc1ccc(O)cc1O [Example 4-HR, 4-Hexylresorcinol]		water-insoluble
CCCCCCCCc1ccc(O)cc1O [4-Octylresorcinol]	None of the mixtures were clear	
